The target of this experiment is recombinant human MGAT2 (Homo sapiens (Human), UniProt Q3SYC2). The experiment is described as follows: Measurement of human MGAT2 inhibitory activity. The class given is biochemical. The note with it: recombinant human MGAT2 membrane fraction (Sf-9); 2-Oleoylglycerol and Oleoyl-CoA substrates; 1 hour at room temperature; Diolein detected by RapidFire Q-TOF MS. From the text: A full-length human MGAT2 gene to which a Flag-tag had been added at the N-terminal was inserted into pFastBac (from Invitrogen). A recombinant baculovirus was produced in accordance with the protocol for a Bac-to-Bac baculovirus expression system (produced by Invitrogen), and Sf-9 cells were infected therewith. The cells were collected and sonicated, and then the membrane fraction was collected through centrifugation.
Sequence of recombinant human MGAT2 (Q3SYC2 whole entry): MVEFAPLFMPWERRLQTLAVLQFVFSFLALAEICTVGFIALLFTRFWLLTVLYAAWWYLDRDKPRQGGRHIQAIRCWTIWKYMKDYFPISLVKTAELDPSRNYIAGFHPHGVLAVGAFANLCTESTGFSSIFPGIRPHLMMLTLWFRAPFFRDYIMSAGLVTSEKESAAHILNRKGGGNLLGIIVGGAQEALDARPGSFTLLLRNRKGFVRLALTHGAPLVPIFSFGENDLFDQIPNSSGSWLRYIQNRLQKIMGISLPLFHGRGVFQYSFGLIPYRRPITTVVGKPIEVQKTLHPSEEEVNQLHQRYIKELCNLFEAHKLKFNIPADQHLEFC
Solutions of the compounds of the present invention in DMSO were each aliquoted into 0.2-μL portions in a 384-well polystyrene microplate produced by Corning Incorporated, and 5 μL of an enzyme solution prepared with an assay buffer (100 mmol/L phosphate buffer (pH 7.4) containing 2 mmol/L DTT) and 5 μL of a substrate solution (100 mmol/L phosphate buffer (pH 7.4), 30 μmol/L 2-Oleoylglycerol, 10 μmol/L Oleoyl-CoA) were added thereto, and the resultant was stirred and centrifuged, and incubated in a moist chamber at room temperature for 1 hour. […] Diolein as a reaction product (P) of 2-Oleoylglycerol as the substrate and an ammonium adduct ion of the IS were detected, and the peak intensity ratio, P/IS, was calculated from the peak heights to evaluate the inhibitory activity. […] The inhibitory activity was calculated from the formula below with TIBCO Spotfire (produced by TIBCO Software Inc.): Inhibitory activity (%)=[1−{Sample−Control(−)}/{Control(+)−Control(−))}]*100 where Sample indicates a peak intensity ratio: P/IS, when the compound of the present invention was added.
`O=C(CC(F)(F)F)NCC1=C(c2ccc(C(F)F)cn2)C[C@](c2ccc(OCCCC(F)(F)F)cc2)(C(F)(F)F)NC1=O` [Compound I-112]: the IC50 amounted to 3.8 nM.
Regarding `CS(=O)(=O)CC(=O)NCC1=C(c2ccc(OC(F)F)cn2)C[C@](c2ccc(OCC(F)(F)F)cc2)(C(F)(F)F)NC1=O` [Compound I-114], the IC50 is 4.1 nM.
Take `CS(=O)(=O)CC(=O)NCC1=C(c2ccc(C(F)F)cn2)C[C@](c2ccccc2)(C(F)(F)F)NC1=O` [Compound I-115]: the IC50 worked out at 110 nM.

These data come from US10335401B2, “Non-aromatic heterocyclic derivative having MGAT2 inhibitory activity” (Shionogi & Co., Ltd., priority 2015, dated 2019).
